The source of these data is ChEMBL document CHEMBL2401729, “Histone deacetylase inhibitors equipped with estrogen receptor modulation activity” (J Med Chem, 2013).

Activity calls are given as the source filed them. No cut-off for these calls is given here.

One series relates to MDA-MB-231. Description: Cytotoxicity against ERalpha and ERbeta-deficient human MDA-MB-231 cells assessed as growth inhibition after 72 hrs by MTT assay. The settings on record: MDA-MB-231, 72 h. Type of series: functional, cell-based. A general note: Tetrazolium assays rely on reduction of a dye to a coloured formazan, in cell work by metabolically active cells.
The target of series [1] is Estrogen receptor beta (Homo sapiens) (UniProt Q92731). Description: Agonist activity at Gal4 DBD-fused human ERbeta LBD expressed in HEK293T cells at 10 uM after 40 hrs by luciferase reporter gene assay. The class given is cell-based. The settings on record: HEK-293T. (In general: Reporter assays use an easily measured gene product as a stand-in for the process of interest.)
Sequence of Estrogen receptor beta (Homo sapiens) (Q92731 whole entry, the tested form may be a part): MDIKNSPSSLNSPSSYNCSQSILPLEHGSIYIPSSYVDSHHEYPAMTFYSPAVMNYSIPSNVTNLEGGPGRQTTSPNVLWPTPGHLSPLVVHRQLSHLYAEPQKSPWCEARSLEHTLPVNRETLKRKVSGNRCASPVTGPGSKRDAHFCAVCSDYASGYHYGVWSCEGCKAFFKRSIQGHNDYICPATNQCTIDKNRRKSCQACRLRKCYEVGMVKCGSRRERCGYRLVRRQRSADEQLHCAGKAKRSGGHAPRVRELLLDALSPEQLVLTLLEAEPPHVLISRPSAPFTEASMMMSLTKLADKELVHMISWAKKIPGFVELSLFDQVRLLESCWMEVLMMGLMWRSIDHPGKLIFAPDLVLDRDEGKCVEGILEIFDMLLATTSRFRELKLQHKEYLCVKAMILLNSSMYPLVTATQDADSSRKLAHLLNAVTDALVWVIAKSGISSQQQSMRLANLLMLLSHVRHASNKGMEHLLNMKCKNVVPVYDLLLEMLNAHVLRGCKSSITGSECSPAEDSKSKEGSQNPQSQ

A further series concerns the target T1, Histone deacetylase 8 (Homo sapiens, UniProt Q9BY41).
T1 sequence (Q9BY41 whole entry): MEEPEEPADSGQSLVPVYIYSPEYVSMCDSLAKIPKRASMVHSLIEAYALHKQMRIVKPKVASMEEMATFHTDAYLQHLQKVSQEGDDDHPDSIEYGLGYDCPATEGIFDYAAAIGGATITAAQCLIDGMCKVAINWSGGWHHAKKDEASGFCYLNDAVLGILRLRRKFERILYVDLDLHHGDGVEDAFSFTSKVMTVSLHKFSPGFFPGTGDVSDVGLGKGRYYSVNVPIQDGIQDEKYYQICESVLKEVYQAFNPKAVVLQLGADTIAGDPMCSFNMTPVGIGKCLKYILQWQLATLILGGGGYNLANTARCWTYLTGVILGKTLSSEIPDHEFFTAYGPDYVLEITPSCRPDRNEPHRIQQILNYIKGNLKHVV
The series can be described thus: Inhibition of human recombinant HDAC8 after 30 mins by fluorescence assay.

Series [2] deals with T2, Protein deacetylase HDAC6 (Homo sapiens, UniProt Q9UBN7).
T2 sequence (Q9UBN7 whole entry): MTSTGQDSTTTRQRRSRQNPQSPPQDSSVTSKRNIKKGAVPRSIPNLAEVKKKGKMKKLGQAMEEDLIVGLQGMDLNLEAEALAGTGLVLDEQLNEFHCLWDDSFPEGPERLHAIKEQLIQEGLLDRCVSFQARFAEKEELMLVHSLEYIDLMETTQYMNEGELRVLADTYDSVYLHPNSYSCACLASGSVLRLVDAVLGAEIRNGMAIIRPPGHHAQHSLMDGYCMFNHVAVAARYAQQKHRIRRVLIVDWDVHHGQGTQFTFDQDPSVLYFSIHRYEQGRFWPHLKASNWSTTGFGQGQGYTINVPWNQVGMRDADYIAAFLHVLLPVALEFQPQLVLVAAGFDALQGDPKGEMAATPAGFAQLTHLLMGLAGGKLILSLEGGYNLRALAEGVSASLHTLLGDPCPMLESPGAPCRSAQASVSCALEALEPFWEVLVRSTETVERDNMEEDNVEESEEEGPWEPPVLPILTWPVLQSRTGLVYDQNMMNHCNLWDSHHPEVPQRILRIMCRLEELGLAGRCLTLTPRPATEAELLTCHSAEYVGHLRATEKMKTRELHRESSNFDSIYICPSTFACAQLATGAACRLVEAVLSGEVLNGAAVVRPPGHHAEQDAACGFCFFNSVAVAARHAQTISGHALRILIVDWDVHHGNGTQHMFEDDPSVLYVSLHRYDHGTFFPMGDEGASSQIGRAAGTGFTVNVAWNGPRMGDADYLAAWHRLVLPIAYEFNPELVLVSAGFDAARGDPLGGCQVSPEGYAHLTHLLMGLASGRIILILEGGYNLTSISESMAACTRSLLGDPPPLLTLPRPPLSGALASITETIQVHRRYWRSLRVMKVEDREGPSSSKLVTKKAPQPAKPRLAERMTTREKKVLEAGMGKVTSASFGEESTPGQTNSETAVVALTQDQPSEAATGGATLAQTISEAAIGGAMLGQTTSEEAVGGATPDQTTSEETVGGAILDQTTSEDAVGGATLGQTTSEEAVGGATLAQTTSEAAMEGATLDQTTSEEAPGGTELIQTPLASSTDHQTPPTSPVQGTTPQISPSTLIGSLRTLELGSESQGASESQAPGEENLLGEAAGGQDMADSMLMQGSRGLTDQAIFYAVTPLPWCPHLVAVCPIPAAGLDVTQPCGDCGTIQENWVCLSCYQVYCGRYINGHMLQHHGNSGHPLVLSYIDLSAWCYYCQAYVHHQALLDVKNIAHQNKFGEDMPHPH
The series can be described thus: Inhibition of human recombinant HDAC6 after 30 mins by fluorescence assay.

For the next series, the target named is Histone deacetylase 1 (Homo sapiens, UniProt Q13547). Description: Inhibition of human recombinant HDAC1 after 30 mins by fluorescence assay.
Sequence of Histone deacetylase 1 (Q13547 whole entry): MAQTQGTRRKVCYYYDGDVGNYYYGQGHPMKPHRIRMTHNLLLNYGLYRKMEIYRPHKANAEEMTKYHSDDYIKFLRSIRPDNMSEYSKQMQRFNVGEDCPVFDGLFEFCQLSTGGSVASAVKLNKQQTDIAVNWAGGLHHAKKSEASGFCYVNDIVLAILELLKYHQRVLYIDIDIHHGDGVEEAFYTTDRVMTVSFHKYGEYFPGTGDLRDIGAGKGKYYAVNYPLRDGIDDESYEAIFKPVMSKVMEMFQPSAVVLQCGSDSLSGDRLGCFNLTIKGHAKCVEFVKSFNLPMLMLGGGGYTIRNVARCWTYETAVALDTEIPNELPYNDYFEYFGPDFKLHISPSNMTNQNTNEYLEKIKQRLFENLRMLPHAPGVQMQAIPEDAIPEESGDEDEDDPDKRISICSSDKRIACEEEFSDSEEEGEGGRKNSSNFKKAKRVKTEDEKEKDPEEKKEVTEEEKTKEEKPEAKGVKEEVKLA
In the next series the test system is DU-145. The series can be described thus: Cytotoxicity against ERalpha-deficient human DU145 cells expressing ERbeta assessed as growth inhibition after 72 hrs by MTT assay. Type of series: functional, cell-based. Particulars: DU-145, 72 h.
Series [3] has as its system MCF7. Description: Cytotoxicity against human MCF7 cells expressing ERalpha and ERbeta assessed as growth inhibition after 72 hrs by MTT assay. Type of series: functional, cell-based. The settings on record: MCF7, 72 h.
The target of the next series is T3, Estrogen receptor (Homo sapiens, UniProt P03372).
T3 sequence (P03372 whole entry): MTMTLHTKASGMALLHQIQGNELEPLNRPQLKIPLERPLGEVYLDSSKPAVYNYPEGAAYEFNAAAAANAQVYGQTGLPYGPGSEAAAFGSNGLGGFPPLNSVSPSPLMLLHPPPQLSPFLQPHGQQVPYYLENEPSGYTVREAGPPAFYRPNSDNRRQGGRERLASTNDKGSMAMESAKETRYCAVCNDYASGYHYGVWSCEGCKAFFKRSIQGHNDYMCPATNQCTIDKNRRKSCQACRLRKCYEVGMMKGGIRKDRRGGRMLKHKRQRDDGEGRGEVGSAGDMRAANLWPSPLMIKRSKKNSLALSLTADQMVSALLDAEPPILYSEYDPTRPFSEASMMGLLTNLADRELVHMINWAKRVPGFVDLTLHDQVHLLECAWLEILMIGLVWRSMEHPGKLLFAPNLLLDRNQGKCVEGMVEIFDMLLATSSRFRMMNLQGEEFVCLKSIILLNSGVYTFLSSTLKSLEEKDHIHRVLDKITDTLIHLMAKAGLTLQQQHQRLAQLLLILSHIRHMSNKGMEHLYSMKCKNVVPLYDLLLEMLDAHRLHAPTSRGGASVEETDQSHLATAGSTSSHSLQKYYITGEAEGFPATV
The series can be described thus: Antagonist activity at Gal4 DBD-fused human ERalpha LBD expressed in HEK293T cells assessed as inhibition of estradiol-induced transcriptional activation after 20 hrs by luciferase reporter gene assay. The class given is cell-based, HEK-293T.

The nature of series [4]: Therapeutic index, ratio of IC50 for african green monkey Vero cells to IC50 for human MCF7 cells expressing ERalpha and ERbeta. Particulars: Vero cells versus MCF7 cells expressing ERalpha and ERbeta.
In the next series the test system is Vero. The series can be described thus: Cytotoxicity against african green monkey Vero cells assessed as growth inhibition after 72 hrs by MTT assay. The class given is ADME, cell-based. Particulars: Chlorocebus sabaeus.
The subject of series [5] is MCF7. The series can be described thus: Ratio of tamoxifen IC50 to compound IC50 for human MCF7 cells expressing ERalpha and ERbeta. Type of series: functional.

A word on the IC50: it is the concentration needed to halve the response being measured. In the case of `C[C@]12CC[C@@H]3c4ccc(O)cc4CC[C@H]3[C@@H]1CC[C@@]2(O)c1cn(CCCCCC(=O)NO)nn1`, the IC50 in the series on MDA-MB-231 turned out to be 22.6 µM; at Histone deacetylase 8 it was 4 µM; in [2] it was 0.032 µM; on Histone deacetylase 1, 0.075 µM; in the series with DU-145, 26.9 µM. In series [1], the outcome was Active.

With `CC/C(=C(\c1ccccc1)c1ccc(OCCN(C)Cc2ccc(-c3cn(CCCCCC(=O)NO)nn3)cc2)cc1)c1ccccc1`, the IC50 in the series on MDA-MB-231 stood at 10 µM; in the series with MCF7 [3], 7.2 µM; in [2], 0.567 µM; at Histone deacetylase 1, 0.524 µM; at Estrogen receptor it was 0.248 µM; with Vero, 9.1 µM. The IC50 in the series on DU-145 was determined as 20.6 µM. In addition, the selectivity ratio in series [4] was determined as 1.26. Moreover, the “Ratio IC50” value with MCF7 [5] came to 2.

For the molecule `CC/C(=C(\c1ccccc1)c1ccc(OCCN(C)Cc2ccc(NC(=O)CCCCCCC(=O)NO)cc2)cc1)c1ccccc1`, the IC50 with MDA-MB-231 was 8.1 µM; in the series on MCF7 [3], 3.8 µM; in [2], 0.221 µM; at Histone deacetylase 1, 2.7 µM; on Estrogen receptor, 0.127 µM; with Vero it was 3.6 µM. Besides, the IC50 in the series with DU-145 was 14.1 µM. Further, in [4], the selectivity ratio was found to be 0.95. In the series on MCF7 [5], the “Ratio IC50” value turned out to be 4.

Regarding `C[C@]12CC[C@@H]3c4ccc(O)cc4CC[C@H]3[C@@H]1CC[C@@]2(O)c1cn(CCCCCCC(=O)NO)nn1`, the half-inhibitory concentration (IC50) is 14.1 µM in the series on MDA-MB-231; 37.3 µM with MCF7 [3]; 0.45 µM at Histone deacetylase 8; 0.013 µM in [2]; 0.028 µM at Histone deacetylase 1; 27 µM in the series on DU-145. Besides, in [1], the outcome was Active.

For the molecule `CC/C(=C(\c1ccccc1)c1ccc(OCCN(C)C)cc1)c1ccccc1` [TAMOXIFEN], the figures for the IC50 in the series with MDA-MB-231, with MCF7 [3] and with Vero were 17 µM, 15.6 µM and 15.9 µM, respectively.

`C[C@]12CC[C@@H]3c4ccc(O)cc4CC[C@H]3[C@@H]1CC[C@@]2(O)c1cn(CCCCCCCC(=O)NO)nn1`: the IC50 turned out to be 33.9 µM in the series with MDA-MB-231, 20 µM at Histone deacetylase 8, 1.3 µM in series [2] and 9 µM at Histone deacetylase 1. The outcome in [1] was Active.

Consider `C[C@]12CC[C@@H]3c4ccc(O)cc4CC[C@H]3[C@@H]1CC[C@@]2(O)c1cn(CCCC(=O)NO)nn1`, for which the IC50 in the series with MDA-MB-231 was 28.4 µM; in the series with MCF7 [3] it was 22 µM; at Histone deacetylase 8 it was 11 µM; in series [2], 0.008 µM; on Histone deacetylase 1 it was 0.015 µM. The outcome in [1] was Active. Moreover, in series [4], the selectivity ratio is > 1.82.

Take `C#C[C@]1(O)CC[C@H]2[C@@H]3CCc4cc(O)ccc4[C@H]3CC[C@@]21C` [ETHINYL ESTRADIOL]: the IC50 with MDA-MB-231 was determined as 32.9 µM.

Consider `C[C@]12CC[C@@H]3c4ccc(O)cc4CC[C@H]3[C@@H]1CC[C@@]2(O)c1cn(CCCCC(=O)NO)nn1`, for which the outcome in series [1] was Active. The figures for the IC50 (on Histone deacetylase 8; in [2]; at Histone deacetylase 1) were 5 µM, 0.14 µM and 0.4 µM, respectively.

For the molecule `CC(O)(CS(=O)(=O)c1ccc(F)cc1)C(=O)Nc1ccc(C#N)c(C(F)(F)F)c1` (configuration not stated) [BICALUTAMIDE], the IC50 in the series on DU-145 turned out to be 18 µM.
